Converted amounts (≈) assume the structure as drawn.
Legend:
Staphylococcus aureus [1] = experiment: Antibacterial activity against methicillin-resistant Staphylococcus aureus M-126; format: functional
Staphylococcus aureus [2] = experiment: Antibacterial activity against carbapenem-resistant Staphylococcus aureus M-126HR; format: functional
Staphylococcus aureus [3] = experiment: Antibacterial activity against methicillin-resistant Staphylococcus aureus 209P JC1; format: functional
[4] = Solubility in water at 5 mg/mL; format: physicochemical
Staphylococcus aureus [5] = experiment: Antibacterial activity against methicillin-resistant Staphylococcus aureus; format: functional

| SMILES | MIC (Staphylococcus aureus [1]) [µg/mL] | MIC (Staphylococcus aureus [2]) [µg/mL] | MIC (Staphylococcus aureus [3]) [µg/mL] | solubility [4] [mg/mL] | MIC50 (Staphylococcus aureus [5]) [µg/mL] | MIC90 (Staphylococcus aureus [5]) [µg/mL] |
| --- | --- | --- | --- | --- | --- | --- |
| CSc1c2sc(C3=C(C(=O)O)N4C(=O)[C@H]([C@@H](C)O)[C@H]4[C@H]3C)cn2c[n+]1Cc1ccc(C[n+]2ccccc2)cc1.[Br-].[Br-] | 0.78 | 1.56 | < 0.006 |  |  |  |
| CSc1c2sc(C3=C(C(=O)O)N4C(=O)[C@H]([C@@H](C)O)[C@H]4[C@H]3C)cn2c[n+]1Cc1cccc(C[N+]23CC[N+](C)(CC2)CC3)c1.[I-].[I-].[I-] | 0.78 | 1.56 | < 0.006 |  |  |  |
| CSc1c2sc(C3=C(C(=O)O)N4C(=O)[C@H]([C@@H](C)O)[C@H]4[C@H]3C)cn2c[n+]1Cc1cccc(C[N+]23CC[N+](CCCN)(CC2)CC3)c1.[I-].[I-].[I-] | 0.39 | 0.78 | < 0.006 | 20 | 0.39 | 0.78 |
| CSc1c2sc(C3=C(C(=O)O)N4C(=O)[C@H]([C@@H](C)O)[C@H]4[C@H]3C)cn2c[n+]1Cc1cccc(C[n+]2cccc(C(N)=O)c2)c1.[Br-].[Br-] | 0.39 | 1.56 | < 0.006 |  |  |  |
| CSc1c2sc(C3=C(C(=O)O)N4C(=O)[C@H]([C@@H](C)O)[C@H]4[C@H]3C)cn2c[n+]1Cc1cccc(C[N+]23CC[N+](CCO)(CC2)CC3)c1.[Br-].[I-].[I-] | 0.78 | 1.56 | < 0.006 |  |  |  |
| CSc1c2sc(C3=C(C(=O)O)N4C(=O)[C@H]([C@@H](C)O)[C@H]4[C@H]3C)cn2c[n+]1Cc1cccc(C[N+]2(C)CCOCC2)c1.[Br-].[Br-] | 0.78 | 3.13 | < 0.006 |  |  |  |
| CSc1c2sc(C3=C(C(=O)O)N4C(=O)[C@H]([C@@H](C)O)[C@H]4[C@H]3C)cn2c[n+]1Cc1ccc(C[N+]2(C)CCOCC2)cc1.[Br-].[Br-] | 1.56 | 3.13 | < 0.006 |  |  |  |
| CSc1c2sc(C3=C(C(=O)O)N4C(=O)[C@H]([C@@H](C)O)[C@H]4[C@H]3C)cn2c[n+]1Cc1ccccc1C[N+]1(C)CCOCC1.[Br-].[Br-] | 1.56 | 3.13 | < 0.006 |  |  |  |
| CSc1c2sc(C3=C(C(=O)O)N4C(=O)[C@H]([C@@H](C)O)[C@H]4[C@H]3C)cn2c[n+]1Cc1cccc(C[n+]2cc3sccn3c2)c1.[Br-].[Br-] | 0.78 | 1.56 | < 0.006 |  |  |  |
| CSc1c2sc(C3=C(C(=O)O)N4C(=O)[C@H]([C@@H](C)O)[C@H]4[C@H]3C)cn2c[n+]1Cc1ccccc1C[n+]1ccccc1.[Br-].[Br-] | 1.56 | 3.13 | < 0.006 |  |  |  |
| CSc1c2sc(C3=C(C(=O)O)N4C(=O)[C@H]([C@@H](C)O)[C@H]4[C@H]3C)cn2c[n+]1Cc1cccc(C[N+]2(C)CCCC2)c1.[Br-].[Br-] | 0.78 | 3.13 | < 0.006 |  |  |  |
| CSc1c2sc(C3=C(C(=O)O)N4C(=O)[C@H]([C@@H](C)O)[C@H]4[C@H]3C)cn2c[n+]1Cc1cccc(C[n+]2ccsc2)c1.[Br-].[Br-] | 0.78 | 3.13 | < 0.006 |  |  |  |
| CSc1c2sc(C3=C(C(=O)O)N4C(=O)[C@H]([C@@H](C)O)[C@H]4[C@H]3C)cn2c[n+]1Cc1cccc(C[n+]2ccccc2)c1.[Br-].[Br-] | 0.78 | 1.56 | < 0.006 |  |  |  |
| CSc1c2sc(C3=C(C(=O)O)N4C(=O)[C@H]([C@@H](C)O)[C@H]4[C@H]3C)cn2c[n+]1Cc1cccc(C[N+]23CC[N+](CC(N)=O)(CC2)CC3)c1.[Br-].[I-].[I-] | 0.78 | 1.56 | < 0.006 |  |  |  |
| CSc1c2sc(C3=C(C(=O)O)N4C(=O)[C@H]([C@@H](C)O)[C@H]4[C@H]3C)cn2c[n+]1Cc1cccc(C[n+]2ccc3ccccc3c2)c1.[Br-].[Br-] | 0.78 | 1.56 | < 0.006 |  |  |  |
| CSc1c2sc(C3=C(C(=O)[O-])N4C(=O)[C@H]([C@@H](C)O)[C@H]4[C@H]3C)cn2c[n+]1CC(N)=O | 1.56 (≈ 3.57 µM) | 3.13 (≈ 7.17 µM) | < 0.006 |  |  |  |
| CSc1c2sc(C3=C(C(=O)[O-])N4C(=O)[C@H]([C@@H](C)O)[C@H]4[C@H]3C)cn2c[n+]1Cc1ccc(C#N)cc1 | 0.78 (≈ 1.58 µM) | 3.13 (≈ 6.33 µM) | < 0.006 |  |  |  |
| CSc1c2sc(C3=C(C(=O)[O-])N4C(=O)[C@H]([C@@H](C)O)[C@H]4[C@H]3C)cn2c[n+]1Cc1ccccc1 | 0.39 (≈ 0.831 µM) | 1.56 (≈ 3.32 µM) | < 0.006 |  |  |  |
| CSc1c2sc(C3=C(C(=O)[O-])N4C(=O)[C@H]([C@@H](C)O)[C@H]4[C@H]3C)cn2c[n+]1Cc1cccc(N)c1 | 0.78 (≈ 1.61 µM) | 3.13 (≈ 6.46 µM) | < 0.006 |  |  |  |
| CSc1c2sc(C3=C(C(=O)[O-])N4C(=O)[C@H]([C@@H](C)O)[C@H]4[C@H]3C)cn2c[n+]1Cc1ccc(Cl)cc1 | 0.78 (≈ 1.55 µM) | 1.56 (≈ 3.1 µM) | < 0.006 |  |  |  |
| CCN(CC)C(=O)c1ccc(C[n+]2cn3cc(C4=C(C(=O)[O-])N5C(=O)[C@H]([C@@H](C)O)[C@H]5[C@H]4C)sc3c2SC)cc1 | 1.56 (≈ 2.74 µM) | 6.25 (≈ 11 µM) | 0.013 (≈ 0.0229 µM) |  |  |  |
| COc1cccc(C[n+]2cn3cc(C4=C(C(=O)[O-])N5C(=O)[C@H]([C@@H](C)O)[C@H]5[C@H]4C)sc3c2SC)c1 | 0.78 (≈ 1.56 µM) | 1.56 (≈ 3.12 µM) | < 0.006 |  |  |  |
| CSc1c2sc(C3=C(C(=O)[O-])N4C(=O)[C@H]([C@@H](C)O)[C@H]4[C@H]3C)cn2c[n+]1Cc1ccc(C(=O)O)cc1 | 3.13 (≈ 6.09 µM) | 12.5 (≈ 24.3 µM) | 0.025 (≈ 0.0487 µM) |  |  |  |
| CSc1c2sc(C3=C(C(=O)[O-])N4C(=O)[C@H]([C@@H](C)O)[C@H]4[C@H]3C)cn2c[n+]1Cc1cccc(O)c1 | 0.39 (≈ 0.803 µM) | 1.56 (≈ 3.21 µM) | < 0.006 |  |  |  |
| C[C@@H](O)[C@H]1C(=O)N2C(C(=O)O)=C(SCCNC=N)C[C@H]12 [IMIPENEM ANHYDROUS] | 25 (≈ 83.5 µM) | 100 (≈ 334 µM) | 0.013 (≈ 0.0434 µM) |  |  |  |
| CN[C@H](CC(C)C)C(=O)N[C@H]1C(=O)N[C@@H](CC(N)=O)C(=O)N[C@H]2C(=O)N[C@H]3C(=O)N[C@H](C(=O)N[C@H](C(=O)O)c4cc(O)cc(O)c4-c4cc3ccc4O)[C@H](O)c3ccc(c(Cl)c3)Oc3cc2cc(c3O[C@@H]2O[C@H](CO)[C@@H](O)[C@H](O)[C@H]2O[C@H]2C[C@](C)(N)[C@H](O)[C@H](C)O2)Oc2ccc(cc2Cl)[C@H]1O [VANCOMYCIN] | 1.56 (≈ 1.08 µM) | 1.56 (≈ 1.08 µM) | 0.78 (≈ 0.538 µM) |  | 1.56 (≈ 1.08 µM) | 1.56 (≈ 1.08 µM) |
